“Also recorded” adds a separate entry of the source.
How the values were obtained:
[1] = system: HCLE cells; experiment: In vitro scratch assay, HCLE cells; format: cell-based, Human
Procedure: Cell Culture. Human corneal limbal epithelial (HCLE) cells were cultured in keratinocyte-serum free medium (K-SFM; ThermoScientific, Waltham, Mass.) supplemented with 0.2 ng/mL rhEGF (ThermoScientific, Waltham, Mass.), bovine pituitary extract (ThermoScientific, Waltham, Mass.) and 1% Amphotericin B (ThermoScientific, Waltham, Mass.). Standard cell culture conditions (37° C., 5% CO2, >95% humidity) were used during routine passages. The culture medium was replaced every 48 hours after seeding.
In Vitro Scratch Assay. HCE, HCLE, HELA and MCF-7 cells were cultured in a 24-well plate at 2.5×10^5 (cells/well) seeding density, and were grown to confluence on a 24-well plate. Subsequently, a straight-line scratch mark was made with a sterile P200 pipette tip. […] The wound area at each time-point was measured using Image J software (Image J 1.47v, NIH, Thornwood, Bethesda, Md.). Relative wound closure was calculated by dividing the closure of the treated wound by that of the untreated wound. […]
(§1) A cell sprouting assay using HCE cells embedded as a spot in growth factor reduced solubilized basement membrane sold under the tradename MATRIGEL® (Corning Life Sciences, Tewksbury, Mass.) was used to determine if HST5 could promote epithelial cell migration. […] Time-lapse microscopy was performed and wound areas were analyzed at different time points. […]

[2] = system: Human corneal epithelial (HCE) cells; experiment: In vitro scratch assay, HCE cells; format: cell-based; conditions: compared with scrambled peptide control (SP1)
Procedure: Human corneal epithelial (HCE) cells were cultured in a Medium Essential Media (MEM; Gibco, Life Technologies, Carlsbad, Calif.). HeLa cells were maintained in Dulbecco's Modified Eagle's Medium (DMEM; Life Technologies, Grand Island, N.Y.). Both media were supplemented with 10% fetal bovine serum (Gibco, Life Technologies, Carlsbad, Calif.) and 1% penicillin-streptomycin (Gibco, Life Technologies, Carlsbad, Calif.). […]
In Vitro Scratch Assay. […] The wound area at each time-point was measured using Image J software (Image J 1.47v, NIH, Thornwood, Bethesda, Md.). Relative wound closure was calculated by dividing the closure of the treated wound by that of the untreated wound. […]
as §1
Wound closure rates of the three salt forms were also analyzed in accordance with the methods disclosed herein. In particular, human corneal epithelial cells were scratched using standardized scratch assays and rates of wound healing were measured after application of the acetic acid, hydrochloride and trifluoroacetate salt forms of SHRGY (SEQ ID NO:2).

[3] = system: epithelial cell migration; experiment: In vitro scratch assay, truncation and scrambled peptide series (FIG. 1; cell line not given); format: cell-based; conditions: 80 μM; FIG. 1; vs untreated control
Procedure: Peptides were tested for efficacy in accelerating scratch closure rates. Negative controls included untreated and multiple scrambled peptide (SP) controls. All peptides were tested at 80 μM concentration. All experiments were performed in triplicate with three technical replicates for each experiment. Statistical significance was determined by one-way ANOYA with Dunnett's post-hoc test. *p<0.05; **p<0.01; ***p<0.001. Relative closure=(% closure of treated sample)/(% closure of Untreated control).
In Vitro Scratch Assay. HCE, HCLE, HELA and MCF-7 cells were cultured in a 24-well plate at 2.5×10^5 (cells/well) seeding density, and were grown to confluence on a 24-well plate. Subsequently, a straight-line scratch mark was made with a sterile P200 pipette tip. The cells were then washed twice with phosphate-buffered saline (PBS) to remove cellular debris. Wounded areas were then treated with the peptides provided in Table 5 at various concentrations in standard medium with reduced serum conditions (0.5% FBS in MEM medium (HCE), growth factor-free K-SFM media (HCLE), 1% FBS in DMEM medium (HeLa) and 0.5% FBS in RPMI 1640 medium (MCF-7)). Scratches were photographed microscopically at 4× magnification (Image Express Micro, Molecular Devices, San Jose, Calif.) every hour over the course of the experiment. The wound area at each time-point was measured using Image J software (Image J 1.47v, NIH, Thornwood, Bethesda, Md.). Relative wound closure was calculated by dividing the closure of the treated wound by that of the untreated wound. For all the experiments including truncated histatin-5, a final concentration of 80 μM was used. PD98059 (Calbiochem, San Diego, Calif.) at final concentration of 50 μM was used as a specific inhibitor of MEK. PD98059 was added to cell cultures at the same time as histatin peptides.
To identify the residues of Hst5 required for epithelial cell migration, serial truncation experiments were performed, progressively deleting residues in Hst5. […] All peptides were tested at 80 μM. […] Thus, the SHRGY (SEQ ID NO:2) sequence is necessary and sufficient to promote epithelial migration rates in in vitro scratch assays.

[4] = system: p-ERK1/2; experiment: Immunofluorescence imaging of p-ERK1/2 in scratched HCE monolayer; format: cell-based, Human; conditions: 80 μM, 45 minutes
Procedure: Immunofluorescence Imaging. HCE cells were seeded in 8-well chamber slide at 9×10^4 (cells/well) seeding density, and allowed to incubate to form a confluent monolayer. Subsequently, a straight-line scratch mark was made with a sterile P10 pipette tip. The cells were then washed with media to remove cellular debris. Wounded areas were subsequently left untreated or treated with Hst5, SP1 or SP2 at 80 μM concentrations in MEM media with 0.5% FBS for 45 minutes. Cells were then fixed with 4% paraformaldehyde for 30 minutes and permeabilized with 0.1% Triton X-100 for 5 minutes. After washing with PBS, cells were incubated at room temperature for 30 minutes with 5% bovine serum albumin (BSA) and 5% normal goat serum in PBS. Cells were subsequently incubated with primary antibodies diluted in 1% BSA against p-ERK1/2 (1:200) (Cell Signaling, Danver, Mass.) at 4° C. for 16 hours. After three washings with PBS, cells were incubated with fluorescein isothiocyanate-conjugated sheep anti-rabbit IgG antibody (BD Biosciences, San Jose, Calif.) (1:500) diluted in 1% BSA at room temperature for 60 minutes. After extensive washing with PBS, the cells were then stained with 4′,6-diamidino-2-phenylindole (DAPI; (Roche, Mannheim, GE) for 2 minutes for nuclear staining. The cells were mounted in Fluoro gel with Tris buffer (Electron Microscopy Sciences, Hattfield, Pa.) and observed under a confocal microscope (Zeiss LSM 710 Confocal Microscope, Oberkochen, Germany) using a 10× objective.
The level of activation/phosphorylation of ERK with and without wounding and with and without Hst5 application were investigated to determine whether the cellular signaling pathways underpinning the pro-migratory effects of Hst5 were similar to those of Hst1 in other epithelial cell types. Wounding causes an increased in phosphorylated form of ERK1/2 (p-ERK1/2). Immunolocalization was used to determine whether Hst5 application to a scratched sheet of epithelium would affect pERK1/2 levels.

With DSHAKRHHGYKRKFHEKHHSHRGY [Hst5] the “rates of in vitro scratch assay closure” value ([1]; 20, 50, 80 and 100 μM, compared with untreated control) was “dose-dependent increase in rates of in vitro scratch assay closure”, the “concentration of most significant increase in scratch closure rates” value ([1]; tested at 20, 50, 80 and 100 μM) was 50 µM and the “concentration of statistically significant peak effect on scratch closure” value [2] was 80 µM. The “scratch (wound) closure rates, relative closure” value [3] was “significant increases in scratch closure rates” and the “pERK1/2 immunolocalization / signal intensity” value [4] was “increased signal intensity of phosphorylated ERK1/2; also recorded: elevated immunolocalization of pERK1/2”.

— patent publication US20230027620A1, “PENTAPEPTIDE AND METHODS OF USE THEREOF” (THE BOARD OF TRUSTEES OF THE UNIVERSITY OF ILLINOIS, priority 2019, published 2023)
